Experimental data as given in patent US12472269B2, “Liver-specific inducible promoters and methods of use thereof” (ASKBIO INC., priority 2019, dated 2025).

T1: human CAR (Homo sapiens, UniProt Q14994)
T1 sequence (Q14994 1-352): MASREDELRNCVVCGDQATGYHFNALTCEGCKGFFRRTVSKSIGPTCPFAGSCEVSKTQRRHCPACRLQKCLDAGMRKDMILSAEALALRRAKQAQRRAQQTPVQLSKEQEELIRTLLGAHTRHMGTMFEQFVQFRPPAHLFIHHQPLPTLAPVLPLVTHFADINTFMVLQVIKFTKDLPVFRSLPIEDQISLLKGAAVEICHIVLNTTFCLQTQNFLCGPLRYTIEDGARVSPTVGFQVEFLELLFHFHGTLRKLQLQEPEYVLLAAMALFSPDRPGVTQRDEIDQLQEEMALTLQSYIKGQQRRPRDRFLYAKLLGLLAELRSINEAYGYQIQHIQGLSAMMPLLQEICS


Experiments:
human CAR = target: T1, human CAR; settings: cited from earlier work
primary hepatocytes = test: Induction of PBREM variants by CITCO and flavone in primary hepatocytes; assay type: cell-based, human
Source text: (§1) In the earlier examples, variants of the promoters used contained a mouse PBREM element. To confirm our expectation that the human PBREM element could also be used, we also assessed the inducibility of the human PBREM; this is potentially relevant because one aim of this project is to provide inducible promoters for use in human gene therapy, and the human sequence may have some advantages. In addition, we also assessed human and mouse hybrids of the PBREM element to determine if we could modulate or improve the inducibility and background level of the promoters. Such new combinations would not be found in nature in any context, and would likely to have novel traits, e.g. background and induction level. The constructs were tested in the PGL4.10 backbone as previously described, and are listed below in Table 2. These were: Human NR1×3-Min TK (3× human NR1 region with MinTK minimal promoter); Human PBREM-minTK (human PBREM with MinTK minimal promoter); hNR1-mNF1-hNR2-Min TK (Human Mouse Human hybrid with MinTK minimal promoter); hNR1-mNFI mNR2-Min TK (Human Mouse Mouse hybrid with MinTK minimal promoter); mNR1-hNF1-mNR2-Min TK (Mouse Human Mouse hybrid with MinTK minimal promoter); mNR1-hNF1-hNR2-Min TK (Mouse Human Human hybrid with MinTK minimal promoter); hPB-SV40 (human PBREM with SV40 minimal promoter); and MHM-SV40 (Mouse Human Mouse hybrid with SV40 minimal promoter)—SEQ ID NOs: 59 to 66, respectively.
(§2) These constructs were tested in the Huh7 stable cell line and primary hepatocytes as previously described. In addition, to testing the constructs with the traditional human CAR activator CITCO we also tested the natural compound flavone. […] CITCO has been predicted to be relatively unstable in vivo, and there is no data available for its safety of use in humans, and is therefore preferred for use only in tissue culture. Furthermore, the in vivo results presented above used phenobarbital as the inducer. In some contexts the use of phenobarbital may be undesirable, even if at 10× less than the recommended dose (which appears to be possible in view of the data above). Therefore, flavone may be a more desirable inducer that mitigates any safety or regulatory issues.
(§3) Expression and induction from these promoters was assessed using both CITCO and flavone in both the Huh7 CAR expressing stable cell line and primary hepatocytes as previously described.

[1] = tested on: Huh7 cell line stably expressing human CAR; test: Induction of PBREM variants by CITCO and flavone in Huh7 cell line stably expressing human CAR; assay type: cell-based
Source text: as §1, §2, §3

[2] = monomers compared with PB1 (FIG. 10), multimers with PB1-2 (FIG. 12)
[3] = monomers compared with PB1 (FIG. 9), multimers with PB1-2 (FIG. 11)

Molecule	activation of human CAR (human CAR)	induction (primary hepatocytes; CITCO and flavone)	background (primary hepatocytes; [2])	induction ([1]; CITCO and flavone)	background [1, 3]	other results
Clc1cnc(Oc2ccc(Oc3ncc(Cl)cc3Cl)cc2)c(Cl)c1 [TCPOBOP, 1,4-Bis[2-(3,5-dichloropyridyloxy)]benzene]	does not activate human CAR					
MHM hybrid: Mouse Human Mouse hybrid PBREM element (SEQ ID NO: 74), tested with Min-Tk and SV40 minimal promoters (DNA TCTGTACTTTCCTGACCTTGAAGAGGTGGCACCATCAACTTGCCTGACACC; expressed or natural sequence)		good induction	lower background	good induction	lower background	overall activity / expression level (primary hepatocytes; [2]): lower overall activity; overall activity / expression level [1, 3]: lower overall activity
O=c1cc(-c2ccccc2)oc2ccccc12 [flavone, reference compound]	previously been reported to activate human CAR					concentration demonstrated suitable to induce expression ([1]; administered to cells): 30 µM
hPB: human PBREM element (SEQ ID NO: 2), tested with Min-TK and SV40 minimal promoters (DNA ACTGTACTTTCCTGACCCTGAAGAGGTGGCAGCATGGACTTTCCTGAACCA; expressed or natural sequence; listed as Homo sapiens)						performance (inducibility and background) compared with PB1 (primary hepatocytes; CITCO and flavone, FIG. 10): almost identical manner to the mouse PBREM (PB1); performance (inducibility and background) compared with PB1 ([1]; CITCO and flavone, FIG. 9): almost identical manner to the mouse PBREM (PB1)
Human NR1x3-MinTK: 3× human NR1 region with MinTK minimal promoter, SEQ ID NO: 59 (nucleic acid, Human NR1x3-Min TK) DNA: ACTGTACTTTCCTGACCCTGAAGAGACTGTACTTTCCTGACCCTGAAGAGACTGTACTTTCCTGACCCTGAAGAGGATCCGGCCCCGCCCAGCGTCTTGTCATTGGCGAATTCGAACACGCAGATGCAGTCGGGGCGGCGCGGTCCGAGGTCCACTTCGCATATTAAGGTGACGCGTGTGGCCTCGAACACCGAGCGACCCTGCAGCGACCCGCTTAACAGCGTCAACAGCGTGCCGCAGATCTCGAGGAGCTTGGCGAGATTTTCAGGAGCT		less so in the primary cells	relatively high background	only induced in the stable cell line	relatively high background	
